In patent US4957730A, “Antimycotic nail varnish” (Hoechst Aktiengesellschaft, priority 1985, dated 1990):
Values after ≈ are worked out from the molar mass of the structure shown.

Assays:
[1] = test system: Trichophyton mentagrophytes 109 (100/25); assay: in vitro series dilution test (MIC); type: cell-based; conditions: T. mentagrophytes
Excerpt: (§1) The results of these experiments are shown in Table 1 in comparison with the efficacy of the pyridone compounds against the highly virulent skin fungus Trichophyton mentagrophytes 109 (100/25) in the in vitro series dilution test and in the guinea pig trichophytosis model.
*Minimum inhibitory concentration (MIC) in the series dilution test

[2] = test system: Trichophyton mentagrophytes 109 (100/25); assay: guinea pig trichophytosis model, inhibition on the skin surface; design: concentration or dose not given beside the values; conditions: in vivo
Excerpt: as §1
**Percentage inhibition on the skin surface in the guinea pig
Trichophytosis model (W. Dittmar, Mykosen 18 (8), 351-361 (1975)

T. mentagrophytes = assay: penetration test on excised pig skin: growth inhibition in the lowest region of the horny layer
Protocol: The test method for penetration capacity on excised skin from pigs enables the capacity to penetrate of an effective concentration of compounds horny tissue to be tested.
(§2) In the tests for the penetration capacity, the surface of shaved pieces of skin was first treated with 0.3% strength solutions of the compounds 1-8 and likewise with three similar compounds not claimed, in each case dissolved in a mixture of 1 ml of dimethyl sulfoxide and 9 ml of isopropanol, at room temperature and was washed again after 2 hours. The lowest region of the horny layer was then exposed by removing the superficial layers by peeling off with adhesive strips ten times in succession. The deep-lying horny layer now exposed was inoculated with virulent pathogens of nail mycoses (dermatophytes). Conclusions as to the level of the penetration capacity were drawn on the basis of the degree of growth inhibition found.
as §1
***Horny layer penetration: percentage growth inhibition by the substance
which has penetrated into the lowest part of the horny layer.
(§3) *Time between application of the product and stripping of the skin

[3] = test system: Trichophyton mentagrophytes; assay: penetration test on horny human skin with nail varnishes: growth inhibition in the deep horny layer; conditions: for growth inhibition of Trichophyton mentagrophytes in the deep lying horny layer of human skin: in words, 1 or 2 hours
Protocol: as §2
In further experiments, the substantially thicker horny human skin was treated by the test method described above at room temperature for 1 or 2 hours with 3% strength nail varnishes of compounds 9 and 10 and likewise with a similar compound 4, which is not claimed, in comparison with the abovementioned nail varnish containing sulbentine. The varnish base of examples 9 and 10 and of comparison 4 and 5 was prepared by mixing the following constituents:
2-Hydroxy-4-methoxybenzophenone: 0.1%
Sodium dioctyl sulfosuccinate: 1.0%
50% strength solution of a copolymer of methyl vinyl ether and monobutyl maleate in isopropyl alcohol: 30.0%
as §3

[4] = Table 1, pig skin, 0.3% strength solutions, washed after 2 hours, lowest part of horny layer
[5] = humans, 3% strength varnishes, action time 60 min
[6] = humans, 3% strength varnishes, action time 120 min

| Structure (SMILES) | MIC [1] | Inhibition (%) on skin [2] | Inhibition (%) in the horny layer (T. mentagrophytes; [4]) | other results |
| --- | --- | --- | --- | --- |
| Cc1ccc(Cc2cc(C)c(C)c(=O)n2O)c(C)c1 [Example 7] | 1.95 µg/mL (≈ 7.58 µM) | 88,8% | 80,0% | – |
| Cc1cc(C2CCCCC2)n(O)c(=O)c1 [Example 10] | – | – | – | Inhibition (%) in the deep horny layer (T. mentagrophytes; 2 h): 98,0%; Inhibition (%) in the deep horny layer [3, 5]: 100,0%; Inhibition (%) in the deep horny layer [3, 6]: 100,0%; growth inhibition of Trichophyton mentagrophytes in the deep lying horny layer of human skin ([3]; 3% strength varnishes): almost completely or completely inhibit the growth |
| Cc1cc(C2CC3CCC2C3)n(O)c(=O)c1 (stereo not drawn) [Example 6] | 1.95 µg/mL (≈ 8.89 µM) | 88,0% | 79,9% | – |
| Cc1cc(C(C)C)n(O)c(=O)c1 [Comparison 1, reference compound] | 1.95 µg/mL (≈ 11.7 µM) | 75,0% | 35,7% | – |
| Cc1cc(CC(C)CC(C)(C)C)n(O)c(=O)c1 (stereo not drawn) [Example 9] | – | – | – | Inhibition (%) in the deep horny layer (T. mentagrophytes; 2 h): 99,6%; Inhibition (%) in the deep horny layer ([3]; 1 h): 99,0%; Inhibition (%) in the deep horny layer ([3]; 2 h): 99,9%; growth inhibition of Trichophyton mentagrophytes in the deep lying horny layer of human skin ([3]; 3% strength varnishes): almost completely or completely inhibit the growth |
| CCCCCCCCCCCc1cc(C)cc(=O)n1O [Comparison 2, reference compound] | 3.9 µg/mL (≈ 14 µM) | 100,0% | 9,8% | Inhibition (%) in the deep horny layer (T. mentagrophytes; 2 h): 9,8%; Inhibition (%) in the deep horny layer [3, 5]: 51,4%; Inhibition (%) in the deep horny layer [3, 6]: 49,4%; growth inhibition of Trichophyton mentagrophytes in the deep lying horny layer of human skin ([3]; 3% strength varnishes): only an inadequate inhibiting effect |
| Cc1cc(CCC2CCCCC2)n(O)c(=O)c1 [Example 5] | 1.95 µg/mL (≈ 8.29 µM) | 88,0% | 81,2% | – |
| Cc1cc(CCc2ccccc2)n(O)c(=O)c1 [Example 8] | 1.95 µg/mL (≈ 8.5 µM) | 88,0% | 81,9% | – |
| Cc1cc(CC(C)CC(C)(C)C)n(O)c(=O)c1 (stereo not drawn) [Example 3] | 1.95 µg/mL (≈ 8.22 µM) | 91,9% | 99,6% | – |
| CCCCC(CC)c1cc(C)cc(=O)n1O (stereo not drawn) [Example 2] | 1.95 µg/mL (≈ 8.73 µM) | 85,6% | – | Inhibition (%) in the horny layer (T. mentagrophytes; 2 h): 85,8% |
| Cc1cc(C2CCCCC2)n(O)c(=O)c1 [Example 4] | 1.95 µg/mL (≈ 9.41 µM) | 88,0% | 98,0% | – |
| Cc1cc(CCCCc2ccccc2)n(O)c(=O)c1 [Comparison 3, reference compound] | 3.9 µg/mL (≈ 15.2 µM) | 88,0% | 24,2% | – |
| CCCCCCCc1cc(C)cc(=O)n1O [Example 1] | 1.95 µg/mL (≈ 8.73 µM) | 89,4% | 97,0% | – |
